Biological target: T1, Apical membrane antigen 1 (Plasmodium falciparum, UniProt Q94661)
T1 sequence (Q94661 whole entry): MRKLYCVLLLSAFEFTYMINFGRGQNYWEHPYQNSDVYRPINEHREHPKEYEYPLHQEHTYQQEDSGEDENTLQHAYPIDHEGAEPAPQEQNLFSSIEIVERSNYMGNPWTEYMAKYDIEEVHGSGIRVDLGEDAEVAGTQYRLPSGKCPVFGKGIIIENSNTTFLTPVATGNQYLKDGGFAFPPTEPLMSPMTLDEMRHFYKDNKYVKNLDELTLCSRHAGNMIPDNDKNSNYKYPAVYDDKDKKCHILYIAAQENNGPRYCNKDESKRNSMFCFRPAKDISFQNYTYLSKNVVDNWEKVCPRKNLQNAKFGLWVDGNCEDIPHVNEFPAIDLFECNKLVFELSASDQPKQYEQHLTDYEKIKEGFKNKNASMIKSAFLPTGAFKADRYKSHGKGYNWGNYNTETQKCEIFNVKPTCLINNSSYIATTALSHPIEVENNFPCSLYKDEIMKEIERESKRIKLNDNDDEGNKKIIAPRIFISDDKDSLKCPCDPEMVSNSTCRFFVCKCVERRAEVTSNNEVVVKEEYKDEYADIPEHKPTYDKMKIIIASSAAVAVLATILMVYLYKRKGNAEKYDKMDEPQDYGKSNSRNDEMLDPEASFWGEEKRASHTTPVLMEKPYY
Experiment: Displacement of 5-FAM-Ahx-ALPLFSKFGSRMH from Plasmodium falciparum AMA1 by fluorescence anisotropy assay

COc1ccc(CN2CC(OCc3ccccc3F)CN(C(=O)CCc3c(C)nc4ncnn4c3C)CC2=O)cc1 (stereo unspecified)
IC50: 24 µM
